Measured values reported in PMC10436550, “Subacute toxicity evaluations of LPM3480392 in rats, a full µ-opioid receptor biased agonist” (Frontiers in Pharmacology, 2023).

Experiments:
Sprague Dawley (SD) rats [1] = experiment: Gross necropsy; type: in vivo, rat; conditions: end of dosing phase and recovery phase
Method: Complete gross necropsies were conducted on all surviving animals at the end of treatment (the day after the last dosing) and recovery periods. The following selected organs were weighed and evaluated in terms of organ/body or organ/brain weight ratios: brain, kidneys, adrenals, testes, ovaries, uterus, epididymides, thymus, spleen, heart and liver. Paired organs were weighed together. Organ-to-body weight ratio = Organ weight(g)/Body weight(g) × 100%, and Organ-to-brain weight ratio = Organ weight(g)/Brain weight(g) × 100%.

µ-opioid receptor (MOR) = tested on: µ-opioid receptor (MOR); design: method as in Yang et al., 2022; conditions: ref Yang et al., 2022, cited from earlier work
Sprague Dawley (SD) rats [2] = experiment: Mortality and clinical observation, 4-week subacute toxicity study; type: in vivo, rat; conditions: for Mild to severe increased activity, starting day: dosing phase
Method: For all surviving animals, a morning and an afternoon observation every day were conducted for the moribundity and death. Daily observation was carried out once within 1 h after each dosing in dosing phase, and at least once daily in recovery phase, including mental status, food and water consumption, hair, discharge, mortality and other toxic reactions. Detailed observation was performed once every week, including appearance, movement, mental status, gland secretions, skin and mucosa color, respiration, genitals, mortality and other toxic reactions.
The animals found dead were recorded for the observation or death time, and weighed followed by a complete postmortem examination to explore the cause of death. All required organs and tissue as listed in the Section 2.11 and other tissues with gross lesions were performed with histopathology examination. Animals found dead which could not be examined immediately were temporarily refrigerated.

Sprague Dawley (SD) rats [3] = experiment: Clinical chemistry, 4-week subacute toxicity study
[4] = female rats, 0.6 mg/kg/day, End of dosing phase
[5] = female rats, 0.6 mg/kg/day, End of recovery phase
[6] = female rats, 1.2 mg/kg/day, End of dosing phase
[7] = female rats, 1.2 mg/kg/day, End of recovery phase
[8] = female rats, 2.4 mg/kg/day, End of dosing phase
[9] = female rats, 2.4 mg/kg/day, End of recovery phase
[10] = male rats, 0.6 mg/kg/day, End of dosing phase
[11] = male rats, 0.6 mg/kg/day, End of recovery phase
[12] = male rats, 1.2 mg/kg/day, End of dosing phase
[13] = male rats, 1.2 mg/kg/day, End of recovery phase
[14] = male rats, 2.4 mg/kg/day, End of dosing phase
[15] = male rats, 2.4 mg/kg/day, End of recovery phase

In the case of Fc1ccc([C@]2(CCNCc3cccc(Cl)c3)CCO[C@]3(CCOC3)C2)nc1 [LPM3480392], the “Gross necropsy findings in main organs” value (Sprague Dawley (SD) rats [1]) is listed as “no LPM3480392-related abnormalities”, the “Emax, in vitro biased agonism” value (µ-opioid receptor (MOR)) is listed as 91.4% and the EC50 (µ-opioid receptor (MOR); read-out: EC50, in vitro biased agonism) is listed as 0.35 nM. The “Mild to severe increased activity, starting day” value (Sprague Dawley (SD) rats [2]; 0.6 mg/kg/day) was 7, the “Mild to severe increased activity, starting day” value (Sprague Dawley (SD) rats [2]; 1.2 mg/kg/day) was 4 and the “Increased muscle tone, incidence” value (Sprague Dawley (SD) rats [2]; 1.2 mg/kg/day, first 5 days of dosing phase) was 33/38. The “Deep respiration or rale, incidence” value (Sprague Dawley (SD) rats [2]; 2.4 mg/kg/day) was 4/36, the “Hunchback, incidence” value (Sprague Dawley (SD) rats [2]; 2.4 mg/kg/day) was 1/36 and the “Piloerection, incidence” value (Sprague Dawley (SD) rats [2]; 2.4 mg/kg/day) was 1/36. For the same molecule, the “Found dead (1 male and 1 female)” value (Sprague Dawley (SD) rats [2]; 2.4 mg/kg/day, Days 3 and 15) was 2/30, the “Decreased activity, incidence” value (Sprague Dawley (SD) rats [2]; 2.4 mg/kg/day, a few time points during dosing phase) was 26/36 and the “Mild to severe increased activity, starting day” value (Sprague Dawley (SD) rats [2]; 2.4 mg/kg/day) was 1. The “Increased muscle tone, incidence” value (Sprague Dawley (SD) rats [2]; 2.4 mg/kg/day, mostly complete dosing phase) was 36/36, the A/G (Sprague Dawley (SD) rats [3]; [4]) was 3.25 ± 0.35 and the ALB (Sprague Dawley (SD) rats [3]; [4]) was 43.3 ± 2.6 g/L. It also gave an ALP (Sprague Dawley (SD) rats [3]; [4]) of 87.4 ± 25.6 U/L, an ALT (Sprague Dawley (SD) rats [3]; [4]) of 24.9 ± 4.2 U/L and an AST (Sprague Dawley (SD) rats [3]; [4]) of 126.9 ± 16.0 U/L. For the same molecule, the CREA (Sprague Dawley (SD) rats [3]; [4]) was 27.9 ± 2.4 µmol/L, the GLU (Sprague Dawley (SD) rats [3]; [4]) was 6.20 ± 0.43 mmol/L and the TBIL (Sprague Dawley (SD) rats [3]; [4]) was 1.0 ± 0.5 µmol/L. For the same molecule, the TG (Sprague Dawley (SD) rats [3]; [4]) was 0.19 ± 0.05 mmol/L, the TP (Sprague Dawley (SD) rats [3]; [4]) was 56.7 ± 2.2 g/L and the A/G (Sprague Dawley (SD) rats [3]; [5]) was 2.68 ± 0.12. The ALB (Sprague Dawley (SD) rats [3]; [5]) was 46.4 ± 2.4 g/L, the ALP (Sprague Dawley (SD) rats [3]; [5]) was 60.5 ± 13.8 U/L and the ALT (Sprague Dawley (SD) rats [3]; [5]) was 29.0 ± 6.6 U/L. The AST (Sprague Dawley (SD) rats [3]; [5]) was 103.0 ± 8.5 U/L, the CREA (Sprague Dawley (SD) rats [3]; [5]) was 36.2 ± 3.7 µmol/L and the GLU (Sprague Dawley (SD) rats [3]; [5]) was 7.01 ± 0.37 mmol/L. For the same molecule, the TBIL (Sprague Dawley (SD) rats [3]; [5]) was 1.1 ± 0.5 µmol/L, the TG (Sprague Dawley (SD) rats [3]; [5]) was 0.28 ± 0.08 mmol/L and the TP (Sprague Dawley (SD) rats [3]; [5]) was 63.8 ± 2.6 g/L. For the same molecule, the A/G (Sprague Dawley (SD) rats [3]; [6]) was 2.70 ± 0.42, the ALB (Sprague Dawley (SD) rats [3]; [6]) was 40.1 ± 2.0 g/L and the ALP (Sprague Dawley (SD) rats [3]; [6]) was 95.9 ± 26.3 U/L. The ALT (Sprague Dawley (SD) rats [3]; [6]) was 28.0 ± 8.0 U/L, the AST (Sprague Dawley (SD) rats [3]; [6]) was 122.5 ± 16.8 U/L and the CREA (Sprague Dawley (SD) rats [3]; [6]) was 29.4 ± 2.4 µmol/L. For the same molecule, the GLU (Sprague Dawley (SD) rats [3]; [6]) was 6.44 ± 0.43 mmol/L, the TBIL (Sprague Dawley (SD) rats [3]; [6]) was 0.7 ± 0.2 µmol/L and the TG (Sprague Dawley (SD) rats [3]; [6]) was 0.19 ± 0.03 mmol/L. For the same molecule, the TP (Sprague Dawley (SD) rats [3]; [6]) was 55.2 ± 2.1 g/L, the A/G (Sprague Dawley (SD) rats [3]; [7]) was 2.63 ± 0.37 and the ALB (Sprague Dawley (SD) rats [3]; [7]) was 47.0 ± 3.5 g/L. The ALP (Sprague Dawley (SD) rats [3]; [7]) was 51.5 ± 17.8 U/L, the ALT (Sprague Dawley (SD) rats [3]; [7]) was 29.2 ± 2.7 U/L and the AST (Sprague Dawley (SD) rats [3]; [7]) was 95.9 ± 16.3 U/L. The CREA (Sprague Dawley (SD) rats [3]; [7]) was 35.2 ± 1.3 µmol/L, the GLU (Sprague Dawley (SD) rats [3]; [7]) was 6.80 ± 0.80 mmol/L and the TBIL (Sprague Dawley (SD) rats [3]; [7]) was 1.2 ± 0.3 µmol/L. It also gave a TG (Sprague Dawley (SD) rats [3]; [7]) of 0.27 ± 0.03 mmol/L, a TP (Sprague Dawley (SD) rats [3]; [7]) of 65.1 ± 4.0 g/L and an A/G (Sprague Dawley (SD) rats [3]; [8]) of 2.64 ± 0.37. It also gave an ALB (Sprague Dawley (SD) rats [3]; [8]) of 39.9 ± 1.9 g/L, an ALP (Sprague Dawley (SD) rats [3]; [8]) of 124.1 ± 41.1 U/L and an ALT (Sprague Dawley (SD) rats [3]; [8]) of 28.7 ± 4.2 U/L. The AST (Sprague Dawley (SD) rats [3]; [8]) was 132.4 ± 15.4 U/L, the CREA (Sprague Dawley (SD) rats [3]; [8]) was 24.4 ± 1.5 µmol/L and the GLU (Sprague Dawley (SD) rats [3]; [8]) was 6.66 ± 0.45 mmol/L. The TBIL (Sprague Dawley (SD) rats [3]; [8]) was 0.7 ± 0.2 µmol/L, the TG (Sprague Dawley (SD) rats [3]; [8]) was 0.16 ± 0.03 mmol/L and the TP (Sprague Dawley (SD) rats [3]; [8]) was 55.2 ± 1.4 g/L. For the same molecule, the A/G (Sprague Dawley (SD) rats [3]; [9]) was 2.55 ± 0.13, the ALB (Sprague Dawley (SD) rats [3]; [9]) was 45.5 ± 2.1 g/L and the ALP (Sprague Dawley (SD) rats [3]; [9]) was 59.2 ± 16.1 U/L. The ALT (Sprague Dawley (SD) rats [3]; [9]) was 34.0 ± 7.0 U/L, the AST (Sprague Dawley (SD) rats [3]; [9]) was 105.9 ± 15.9 U/L and the CREA (Sprague Dawley (SD) rats [3]; [9]) was 32.5 ± 3.1 µmol/L. The GLU (Sprague Dawley (SD) rats [3]; [9]) was 6.61 ± 0.24 mmol/L, the TBIL (Sprague Dawley (SD) rats [3]; [9]) was 0.9 ± 0.6 µmol/L and the TG (Sprague Dawley (SD) rats [3]; [9]) was 0.30 ± 0.06 mmol/L. The TP (Sprague Dawley (SD) rats [3]; [9]) was 63.4 ± 3.3 g/L, the “Increased AST and GLU and decreased CREA, magnitude” value (Sprague Dawley (SD) rats [3]; female rats, all LPM3480392 groups) was less than 18% and the “Decreased ALB, magnitude” value (Sprague Dawley (SD) rats [3]; females, all LPM3480392 groups) was less than 18%. For the same molecule, the “Decreased TP, magnitude” value (Sprague Dawley (SD) rats [3]; females, all LPM3480392 groups) was less than 18%, the A/G (Sprague Dawley (SD) rats [3]; [10]) was 3.02 ± 0.34 and the ALB (Sprague Dawley (SD) rats [3]; [10]) was 39.8 ± 2.0 g/L. It also gave a GLU (Sprague Dawley (SD) rats [3]; [10]) of 5.90 ± 0.48 mmol/L, a TG (Sprague Dawley (SD) rats [3]; [10]) of 0.21 ± 0.06 mmol/L and a TP (Sprague Dawley (SD) rats [3]; [10]) of 53.0 ± 2.3 g/L. It also gave an A/G (Sprague Dawley (SD) rats [3]; [11]) of 2.10 ± 0.18, an ALB (Sprague Dawley (SD) rats [3]; [11]) of 37.4 ± 0.4 g/L and a GLU (Sprague Dawley (SD) rats [3]; [11]) of 7.26 ± 0.55 mmol/L. For the same molecule, the TG (Sprague Dawley (SD) rats [3]; [11]) was 0.26 ± 0.16 mmol/L, the TP (Sprague Dawley (SD) rats [3]; [11]) was 55.2 ± 1.7 g/L and the A/G (Sprague Dawley (SD) rats [3]; [12]) was 3.03 ± 0.37. For the same molecule, the ALB (Sprague Dawley (SD) rats [3]; [12]) was 38.4 ± 2.0 g/L, the GLU (Sprague Dawley (SD) rats [3]; [12]) was 6.39 ± 0.32 mmol/L and the TG (Sprague Dawley (SD) rats [3]; [12]) was 0.19 ± 0.05 mmol/L. The TP (Sprague Dawley (SD) rats [3]; [12]) was 51.3 ± 2.3 g/L, the A/G (Sprague Dawley (SD) rats [3]; [13]) was 2.05 ± 0.08 and the ALB (Sprague Dawley (SD) rats [3]; [13]) was 36.6 ± 0.8 g/L. It also gave a GLU (Sprague Dawley (SD) rats [3]; [13]) of 6.64 ± 0.99 mmol/L, a TG (Sprague Dawley (SD) rats [3]; [13]) of 0.33 ± 0.12 mmol/L and a TP (Sprague Dawley (SD) rats [3]; [13]) of 54.5 ± 0.6 g/L. For the same molecule, the A/G (Sprague Dawley (SD) rats [3]; [14]) was 2.94 ± 0.30, the ALB (Sprague Dawley (SD) rats [3]; [14]) was 38.0 ± 1.6 g/L and the GLU (Sprague Dawley (SD) rats [3]; [14]) was 6.76 ± 0.56 mmol/L. It also gave a TG (Sprague Dawley (SD) rats [3]; [14]) of 0.17 ± 0.05 mmol/L, a TP (Sprague Dawley (SD) rats [3]; [14]) of 51.0 ± 1.4 g/L and an A/G (Sprague Dawley (SD) rats [3]; [15]) of 2.25 ± 0.27. It also gave an ALB (Sprague Dawley (SD) rats [3]; [15]) of 37.7 ± 0.7 g/L, a GLU (Sprague Dawley (SD) rats [3]; [15]) of 6.53 ± 0.83 mmol/L and a TG (Sprague Dawley (SD) rats [3]; [15]) of 0.31 ± 0.12 mmol/L. For the same molecule, the TP (Sprague Dawley (SD) rats [3]; [15]) was 54.6 ± 1.7 g/L, the “Decreased ALB, magnitude” value (Sprague Dawley (SD) rats [3]; males, all LPM3480392 groups) was less than 10% and the “Decreased GLU, magnitude” value (Sprague Dawley (SD) rats [3]; males, all LPM3480392 groups) was less than 20%. The “Decreased TG, magnitude” value (Sprague Dawley (SD) rats [3]; males, all LPM3480392 groups) was less than 49% and the “Decreased TP, magnitude” value (Sprague Dawley (SD) rats [3]; males, all LPM3480392 groups) was less than 10%.
